pEC50: −log10 of the molar value. Values belong to the compound of their own block, whether it stands above or below them.
Molecular target: hTREM2 (Homo sapiens, UniProt Q9NZC2)
Assay: Phospho-Syk AlphaScreen/AlphaLISA assay in TREM2 and DAP12 overexpressing HEK293 cells (Example A1)
Type: cell-based
Set-up: expressed in transfected cells
Conditions: HEK293 cells; for pEC50: read-out: hTREM2 EC50
Summary of the method: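 Single-cell-cloned HEK293 stably overexpressing TREM2 and DAP12, plated 20,000 cells/well for 20 h, then exposed to compounds (1% DMSO) 45 min at room temperature. Lysates probed for phospho-Syk by AlphaLISA sandwich (anti-pSyk, biotinylated anti-Syk); signal normalized to percent of control (100 nM anti-TREM2 antibody vs isotype) and fitted by 4-parameter logistic.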

Chain of hTREM2 (Q9NZC2 19-230): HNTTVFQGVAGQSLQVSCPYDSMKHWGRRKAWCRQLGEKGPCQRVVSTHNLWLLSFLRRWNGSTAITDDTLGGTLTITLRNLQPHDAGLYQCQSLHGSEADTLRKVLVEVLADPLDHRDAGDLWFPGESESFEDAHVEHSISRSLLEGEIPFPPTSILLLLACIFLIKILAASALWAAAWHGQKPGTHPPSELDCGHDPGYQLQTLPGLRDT
Chain of hTREM2 (O43914 22-113 partner): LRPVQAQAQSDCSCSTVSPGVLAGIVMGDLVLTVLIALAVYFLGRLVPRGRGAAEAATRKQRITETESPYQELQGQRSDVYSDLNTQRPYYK

- Emax: ++++ (Emax>300)
- pEC50: 4.00 to 5.52
SMILES: Cc1nc2cc(N3CCO[C@@H](c4cnn(C)c4)C3)nc(-c3ccc(Cl)cn3)c2c(=O)n1C [Example 212, (S)-5-(5-chloropyridin-2-yl)-2,3-dimethyl-7-(2-(1-methyl-1H-pyrazol-4-yl)morpholino)pyrido[4,3-d]pyrimidin-4(3H)-one]

- Emax: + (Emax>45 and ≤100)
- pEC50: 4.00 to 5.52
SMILES: Cc1cnn([C@H]2CCN(c3cc4nc(C)n(C)c(=O)c4c(-c4ccc(Cl)cc4F)n3)C2)c1 [Example 204, (S)-5-(4-chloro-2-fluorophenyl)-2,3-dimethyl-7-(3-(4-methyl-1H-pyrazol-1-yl)pyrrolidin-1-yl)pyrido[4,3-d]pyrimidin-4(3H)-one]

- Emax: ++ (Emax>100 and ≤200)
- pEC50: 4.00 to 5.52
SMILES: Cc1cn2c(n1)CN(c1cc3nc(C)n(C)c(=O)c3c(-c3ccc(Cl)cc3F)n1)CC2 [Example 234, 5-(4-chloro-2-fluorophenyl)-2,3-dimethyl-7-(2-methyl-5,6-dihydroimidazo[1,2-a]pyrazin-7(8H)-yl)pyrido[4,3-d]pyrimidin-4(3H)-one]

- Emax: +++ (Emax>200 and ≤300)
- pEC50: 4.00 to 5.52
SMILES: Cc1nc2cc(N3CC[C@H](c4cnn(C)c4)C3)nc(-c3ccc(Cl)cc3F)c2c(=O)n1C [Example 202, (R)-5-(4-chloro-2-fluorophenyl)-2,3-dimethyl-7-(3-(1-methyl-1H-pyrazol-4-yl)pyrrolidin-1-yl)pyrido[4,3-d]pyrimidin-4(3H)-one]

- Emax: ++++ (Emax>300)
- pEC50: 6.30 to 7.30
SMILES: COc1cccc([C@@H]2CN(c3cc4nc(C)n(C)c(=O)c4c(-c4ccc(Cl)cc4F)n3)CCO2)c1 [Example 238, (R)-5-(4-chloro-2-fluorophenyl)-7-(2-(3-methoxyphenyl)morpholino)-2,3-dimethylpyrido[4,3-d]pyrimidin-4(3H)-one]

- Emax: ++++ (Emax>300)
- pEC50: 5.52 to 6.30
SMILES: CCCn1c(C)nc2cc(N3CCO[C@H](C(F)F)C3)nc(-c3ccc(Cl)cc3F)c2c1=O [Example 191, (S)-5-(4-chloro-2-fluorophenyl)-7-(2-(difluoromethyl)morpholino)-2-methyl-3-propylpyrido[4,3-d]pyrimidin-4(3H)-one]

- Emax: ++ (Emax>100 and ≤200)
- pEC50: 4.00 to 5.52
SMILES: Cc1nc2cc(N3Cc4cccnc4C3)nc(-c3ccc(Cl)cc3F)c2c(=O)n1C [Example 247, 5-(4-chloro-2-fluorophenyl)-7-(5,7-dihydro-6H-pyrrolo[3,4-b]pyridin-6-yl)-2,3-dimethylpyrido [4,3-d]pyrimidin-4(3H)-one]

- Emax: ++ (Emax>100 and ≤200)
- pEC50: 4.00 to 5.52
SMILES: Cc1nc2cc(N3CCC[C@@H](C4CNC4)C3)nc(-c3ccc(Cl)cc3F)c2c(=O)n1C [Example 251, (S)-7-(3-(azetidin-3-yl)piperidin-1-yl)-5-(4-chloro-2-fluorophenyl)-2,3-dimethylpyrido[4,3-d]pyrimidin-4(3H)-one]

- Emax: ++++ (Emax>300)
- pEC50: 5.52 to 6.30
SMILES: CCCn1c(C)nc2cc(N3CCO[C@H](c4ccccc4)C3)nc(-c3ccc(Cl)cc3F)c2c1=O [Example 186, (R)-5-(4-chloro-2-fluorophenyl)-2-methyl-7-(2-phenylmorpholino)-3-propylpyrido[4,3-d]pyrimidin-4(3H)-one]

The remaining lines, values behind:

SMILES: Cc1ccc(C2CC(c3cc4nc(C)n(C)c(=O)c4c(-c4ccc(Cl)cc4F)n3)CCO2)cn1 (stereo not drawn) [Example 171, 5-(4-chloro-2-fluorophenyl)-2,3-dimethyl-7-(2-(6-methylpyridin-3-yl)tetrahydro-2H-pyran-4-yl)pyrido[4,3-d]pyrimidin-4(3H)-one]
- Emax: +++ (Emax>200 and ≤300)
- pEC50: 6.30 to 7.30

SMILES: Cc1nc2cc(N3CCCC(N4CCC4)C3)nc(-c3ccc(Cl)cc3F)c2c(=O)n1C (stereo not drawn) [Example 110, 7-(3-(1-azetidinyl)-1-piperidinyl)-5-(4-chloro-2-fluorophenyl)-2,3-dimethylpyrido[4,3-d]pyrimidin-4(3H)-one]
- Emax: ++++ (Emax>300)
- pEC50: 5.52 to 6.30

SMILES: Cc1nc2cc(N3CCO[C@@H](c4cnn(C)c4)C3)nc(-c3ccc(F)c(F)c3F)c2c(=O)n1C [Example 9, 2,3-dimethyl-7-((2S)-2-(1-methyl-1H-pyrazol-4-yl)-4-morpholinyl)-5-(2,3,4-trifluorophenyl)pyrido[4,3-d]pyrimidin-4(3H)-one]
- Emax: +++ (Emax>200 and ≤300)
- pEC50: 6.30 to 7.30

SMILES: Cc1nc2cc(N3CCO[C@@H](c4cnn(C)c4)C3)nc(-c3cc(F)c(F)cc3F)c2c(=O)n1C [Example 10, 2,3-dimethyl-7-((2S)-2-(1-methyl-1H-pyrazol-4-yl)-4-morpholinyl)-5-(2,4,5-trifluorophenyl)pyrido[4,3-d]pyrimidin-4(3H)-one]
- Emax: ++++ (Emax>300)
- pEC50: 6.30 to 7.30

SMILES: C=Cn1cc([C@H]2CN(c3cc4nc(C)n(C)c(=O)c4c(-c4ccc(Cl)cc4F)n3)CCO2)cn1 [Example 137, 5-(4-chloro-2-fluorophenyl)-7-((2S)-2-(1-ethenyl-1H-pyrazol-4-yl)-4-morpholinyl)-2,3-dimethylpyrido[4,3-d]pyrimidin-4(3H)-one]
- Emax: ++++ (Emax>300)
- pEC50: > 7.30

SMILES: Cc1nc2cc(N3CCOC(CC(F)(F)F)C3)nc(-c3ccc(Cl)cc3F)c2c(=O)n1C (stereo not drawn) [Example 53, 5-(4-chloro-2-fluorophenyl)-2,3-dimethyl-7-(2-(2,2,2-trifluoroethyl)-4-morpholinyl)pyrido[4,3-d]pyrimidin-4(3H)-one]
- Emax: ++++ (Emax>300)
- pEC50: 5.52 to 6.30

SMILES: Cc1nc([C@@H]2CN(c3cc4nc(C)n(C)c(=O)c4c(-c4ccc(Cl)cc4F)n3)CCO2)no1 (single isomer, unassigned) [Example 57]
- Emax: +++ (Emax>200 and ≤300)
- pEC50: 5.52 to 6.30

SMILES: Cc1nc2cc(N3CCC(F)(F)[C@@H](c4cnn(C)c4)C3)nc(-c3ccc(Cl)cc3F)c2c(=O)n1C (single isomer, unassigned) [Example 118]
- Emax: +++ (Emax>200 and ≤300)
- pEC50: 6.30 to 7.30

SMILES: CCCn1c(C)nc2cc(N3CCO[C@@H](c4cnn(C)c4)C3)nc(-c3ccc(Cl)cc3F)c2c1=O [Example 152, 5-(4-chloro-2-fluorophenyl)-2-methyl-7-((2S)-2-(1-methyl-1H-pyrazol-4-yl)-4-morpholinyl)-3-propylpyrido[4,3-d]pyrimidin-4(3H)-one]
- Emax: +++ (Emax>200 and ≤300)
- pEC50: > 7.30

SMILES: Cc1noc([C@@H]2CCCN(c3cc4nc(C)n(C)c(=O)c4c(-c4ccc(Cl)cc4F)n3)C2)n1 (single isomer, unassigned) [Example 111]
- Emax: ++++ (Emax>300)
- pEC50: 6.30 to 7.30

SMILES: Cc1nc2cc(N3CCC[C@@H](c4cnn(C)c4)C3)nc(-c3ccc(Cl)cc3F)c2c(=O)n1C (single isomer, unassigned) [Example 99]
- Emax: ++++ (Emax>300)
- pEC50: 6.30 to 7.30

SMILES: COc1cc([C@@H]2CN(c3cc4nc(C)n(C)c(=O)c4c(-c4ccc(Cl)cc4F)n3)CCO2)ccn1 (single isomer, unassigned) [Example 83]
- Emax: ++++ (Emax>300)
- pEC50: 6.30 to 7.30

SMILES: Cc1nc2cc(N3CCO[C@@H](c4cnn(C)c4)C3)nc(-c3ccc(Cl)c(F)c3F)c2c(=O)n1C [Example 14, 5-(4-chloro-2,3-difluorophenyl)-2,3-dimethyl-7-((2S)-2-(1-methyl-1H-pyrazol-4-yl)-4-morpholinyl) pyrido[4,3-d]pyrimidin-4(3H)-one]
- Emax: ++++ (Emax>300)
- pEC50: 6.30 to 7.30

SMILES: Cc1c([C@H]2CN(c3cc4nc(C)n(C)c(=O)c4c(-c4ccc(Cl)cc4F)n3)CCO2)cnn1C (single isomer, unassigned) [Example 67]
- Emax: ++ (Emax>100 and ≤200)
- pEC50: 4.00 to 5.52

SMILES: Cc1cc([C@H]2C[C@@H](c3cc4nc(C)n(C)c(=O)c4c(-c4ccc(Cl)cc4F)n3)CCO2)ccn1 (single isomer, unassigned) [Example 169]
- Emax: +++ (Emax>200 and ≤300)
- pEC50: > 7.30

SMILES: Cc1nc2cc(N3CCO[C@@H](c4cnn(C)c4)C3)nc(-c3ccc(Cl)cc3F)c2c(=O)n1C [Example 1, 5-(4-chloro-2-fluorophenyl)-2,3-dimethyl-7-((2S)-2-(1-methyl-1H-pyrazol-4-yl)-4-morpholinyl)pyrido[4,3-d]pyrimidin-4(3H)-one]
- Emax: +++ (Emax>200 and ≤300)
- pEC50: 6.30 to 7.30

SMILES: Cc1nc2cc(N3CCO[C@@H](c4cnn(C(CF)CF)c4)C3)nc(-c3ccc(Cl)cc3F)c2c(=O)n1C [Example 133, 5-(4-chloro-2-fluorophenyl)-7-((2S)-2-(1-(1,3-difluoro-2-propanyl)-1H-pyrazol-4-yl)-4-morpholinyl)-2,3-dimethylpyrido[4,3-d]pyrimidin-4(3H)-one]
- Emax: +++ (Emax>200 and ≤300)
- pEC50: > 7.30

SMILES: Cc1nc2cc(N3CCO[C@@H](c4cccc(OC(F)(F)F)c4)C3)nc(-c3ccc(Cl)cc3F)c2c(=O)n1C (single isomer, unassigned) [Example 98]
- Emax: +++ (Emax>200 and ≤300)
- pEC50: 4.00 to 5.52

SMILES: COc1cc([C@H]2C[C@H](c3cc4nc(C)n(C)c(=O)c4c(-c4ccc(Cl)cc4F)n3)CCO2)ccn1 (single isomer, unassigned) [Example 174]
- Emax: ++++ (Emax>300)
- pEC50: 6.30 to 7.30

SMILES: Cc1nc2cc(N3CCO[C@@H](c4cnn(C5CN(C(=O)OC(C)(C)C)C5)c4)C3)nc(-c3ccc(Cl)cc3F)c2c(=O)n1C [Example 134, 2-methyl-2-propanyl 3-(4-((2S)-4-(5-(4-chloro-2-fluorophenyl)-2,3-dimethyl-4-oxo-3,4-dihydropyrido[4,3-d]pyrimidin-7-yl)-2-morpholinyl)-1H-pyrazol-1-yl)-1-azetidinecarboxylate]
- Emax: ++++ (Emax>300)
- pEC50: 6.30 to 7.30

SMILES: CCCn1c(C)nc2cc(N3CCO[C@@H](C(F)(F)F)C3)nc(-c3ccc(Cl)cc3F)c2c1=O [Example 179, (R)-5-(4-chloro-2-fluorophenyl)-2-methyl-3-propyl-7-(2-(trifluoromethyl)morpholino)pyrido[4,3-d]pyrimidin-4(3H)-one]
- Emax: ++++ (Emax>300)
- pEC50: 5.52 to 6.30

Reference: patent publication US20250388574A1, “HETEROCYCLIC COMPOUNDS AS TRIGGERING RECEPTOR EXPRESSED ON MYELOID CELLS 2 AGONISTS AND METHODS OF USE” (AMGEN INC., priority 2020, published 2025)
